Results taken from article PMC8611036, “An integrated method for optimized identification of effective natural inhibitors against SARS-CoV-2 3CLpro” (Scientific Reports, 2021).
Like-named read-outs stand apart in the source and are kept apart here. Non-standard residues stand in square brackets, D forms with d. Residues, ends and D or L forms follow the SMILES beside them. Cha = N[C@@H](CC1CCCCC1)C(=O)O

Tested on: SARS-CoV 3CLpro
Type: biochemical
[1] = activity class by pIC50 threshold 6

O=C(Oc1cncc(Br)c1)c1cccs1 [CMP232]
Inact.(<6)/Act.(>=6) [1]: Act. (Act.(>=6))

CC(C)C[C@H](NC(=O)[C@@H](NC(=O)[C@H](C)NC(=O)OC(C)(C)C)C(C)C)C(=O)N[C@H](C#N)CCC(N)=O [CMP229]
Inact.(<6)/Act.(>=6) [1]: Inact. (Inact.(<6))

O=C(Nc1ccc(N(Cc2ccsc2)C(=O)Cn2nnc3ccccc32)cc1)C1CC1 [CMP195]
Inact.(<6)/Act.(>=6) [1]: Inact. (Inact.(<6))

CC(=O)N[C@@H](C)C(=O)N[C@H](C(=O)N[C@@H](CC1CCCCC1)C(=O)N[C@H](C=O)Cc1c[nH]cn1)C(C)C [CMP219] (Ac-AV[Cha]H-aldehyde)
Inact.(<6)/Act.(>=6) [1]: Act. (Act.(>=6))

CCOC(=O)c1ccccc1SSc1nc(C(=O)OC)c(C)[nH]1 [CMP264]
Inact.(<6)/Act.(>=6) [1]: Inact. (Inact.(<6))

CNc1ccc(N(Cc2ccsc2)C(=O)Cn2nnc3ccccc32)cc1 [CMP223]
Inact.(<6)/Act.(>=6) [1]: Inact. (Inact.(<6))

CC(C)c1cc2c(cc1O)[C@@]1(C)CC[C@H](O)C(C)(C)[C@@H]1CC2 [CMP163]
Inact.(<6)/Act.(>=6) [1]: Inact. (Inact.(<6))

O=c1c(O)c(-c2ccc(O)c(O)c2)oc2cc(O)cc(O)c12 [CMP151]
Inact.(<6)/Act.(>=6) [1]: Inact. (Inact.(<6))

CC(C)(C)NC(=O)C(c1ccsc1)N(C(=O)Cn1nnc2ccccc21)c1ccc(NC(=O)C2CC2)cc1 (stereo not shown) [CMP191]
Inact.(<6)/Act.(>=6) [1]: Inact. (Inact.(<6))

COCCC(=O)Nc1ccc(N(C(=O)Cn2nnc3ccccc32)C(C)c2ccsc2)cc1 (stereo not shown) [CMP252]
Inact.(<6)/Act.(>=6) [1]: Inact. (Inact.(<6))

O=C(Oc1cncc(Cl)c1)c1ccc(-c2ccc(Cl)cc2)o1 [CMP277]
Inact.(<6)/Act.(>=6) [1]: Act. (Act.(>=6))

CN1C(=O)C(=O)c2cc(S(=O)(=O)N3CCN(c4ccccn4)CC3)ccc21 [CMP245]
Inact.(<6)/Act.(>=6) [1]: Inact. (Inact.(<6))

CC1CC(C)CN(S(=O)(=O)c2ccc3c(c2)C(=O)C(=O)N3)C1 (stereo not shown) [CMP255]
Inact.(<6)/Act.(>=6) [1]: Inact. (Inact.(<6))

CC(=O)Nc1cnc(SSc2ccccc2[N+](=O)[O-])s1 [CMP271]
Inact.(<6)/Act.(>=6) [1]: Inact. (Inact.(<6))

O=C(Cn1nnc2ccccc21)N(Cc1ccsc1)c1ccc(-c2ccncc2)cc1 [CMP226]
Inact.(<6)/Act.(>=6) [1]: Inact. (Inact.(<6))

CC(=O)N[C@@H](CO)C(=O)N[C@@H](C)C(=O)N[C@H](C(=O)N[C@@H](CC(C)C)C(=O)N[C@H](C=O)Cc1ccccc1)C(C)C [CMP215] (Ac-SAVLF-aldehyde)
Inact.(<6)/Act.(>=6) [1]: Inact. (Inact.(<6))

CC(C)(C)NC(=O)C(c1cccnc1)N(C(=O)c1ncco1)c1ccc(C(C)(C)C)cc1 (stereo not shown) [CMP202]
Inact.(<6)/Act.(>=6) [1]: Inact. (Inact.(<6))

COC(=O)[C@]1(C)CC[C@]2(C)CC[C@]3(C)C4=CC=C5C(=CC(=O)C(O)=C5C)[C@]4(C)CC[C@@]3(C)[C@@H]2C1 [CMP128]
Inact.(<6)/Act.(>=6): Inact. (key: Inact.(<6); Act.(>=6))

O=C1NN(c2ccc(Cl)c(Cl)c2)C(=O)/C1=C\c1ccc(-c2ccc(Br)cc2C(=O)O)o1 [CMP104]
Inact.(<6)/Act.(>=6) [1]: Inact. (Inact.(<6))

CC(=O)n1nc(SSc2ccccc2[N+](=O)[O-])nc1-c1cccnc1 [CMP272]
Inact.(<6)/Act.(>=6) [1]: Inact. (Inact.(<6))

CN1C(=O)C(=O)c2cc(S(=O)(=O)N3CCN(CCc4ccccc4)CC3)ccc21 [CMP244]
Inact.(<6)/Act.(>=6) [1]: Inact. (Inact.(<6))

CC1CCCCN1S(=O)(=O)c1ccc2c(c1)C(=O)C(=O)N2 (stereo not shown) [CMP240]
Inact.(<6)/Act.(>=6) [1]: Inact. (Inact.(<6))

O=C[C@H](Cc1c[nH]cn1)NC[C@@H]1C[C@H]2CCCC[C@@H]2CN1C(=O)c1ccccc1 [CMP262]
Inact.(<6)/Act.(>=6) [1]: Inact. (Inact.(<6))

O=C1Nc2ccc(S(=O)(=O)N3CCN(C(=O)c4ccco4)CC3)cc2C1=O [CMP238]
Inact.(<6)/Act.(>=6) [1]: Inact. (Inact.(<6))

O=[N+]([O-])c1cc(C(F)(F)F)ccc1S(=O)(=O)c1ccc(Cl)cc1 [CMP287]
Inact.(<6)/Act.(>=6) [1]: Inact. (Inact.(<6))

CC1CCN(S(=O)(=O)c2ccc3c(c2)C(=O)C(=O)N3C)CC1 [CMP247]
Inact.(<6)/Act.(>=6) [1]: Inact. (Inact.(<6))

O=C(Oc1cncc(Cl)c1)c1cccc([N+](=O)[O-])c1 [CMP275]
Inact.(<6)/Act.(>=6) [1]: Act. (Act.(>=6))

O=C1Nc2ccc(S(=O)(=O)N3CCN(Cc4cccc(Cl)c4)CC3)cc2C1=O [CMP235]
Inact.(<6)/Act.(>=6) [1]: Inact. (Inact.(<6))
